Holding throughout (assay type): cell-based
In one experiment the test system is PC-3. The experiment can be described thus: cells. Conditions: Homo sapiens, PC-3; 2D monolayer, 72 h, Harmony software; no unit in the table, μM; read-out: Estimated EC50 values for cell proliferation, PC-3. As to the method:
(§1) To rule out that cytotoxic and antimitotic effects were misinterpreted as anti-invasive, we tested compounds 4, 5, 6, 19 and 20 for inhibition of proliferation and induction of cell death in a 2D monolayer culture (summarized in Fig 6). […] LNCaP cells were more sensitive, with growth inhibition/cytotoxicity starting at 3 μM. The effects on non-transformed, apoptosis-sensitive Ep156T cells were strongest. Here, cytotoxic effects were typically observed already at 0.3–1 μM. […] We further calculated EC50 values for proliferation, apoptosis and cell death for each compound, using the PerkinElmer Harmony software (method validation shown in S7 Fig). The only assay that produced results consistent with those of the betulin derivatives tested in the 2D cell culture model was the proliferation assay (Table 1).
(§2) Fig 6 Cytotoxicity tests performed in 2D monolayer culture. A) Cell proliferation/cell number, B) programmed cell death (apoptosis), and C) number of dead cells were assessed by conventional assays, combined with high-content microscopy (Operetta). […] Proliferation was measured as the total number of nuclei (= cells), apoptosis as ratio of caspase-3 positive versus all cells, and cell death as ethidium homodimer-2 positive nuclei versus all cells.
(§3) Cells were transferred into CellCarrier 384-well plates (PerkinElmer, Waltham, MA, USA) at a density of 1250 cells/well, using Multidrop dispenser (ThermoFisher Scientific, Waltham, MA, USA). After overnight incubation at 37°C experimental, compounds were added with an ATS Acoustic Transfer System (EDC Biosystems, Fremont, CA, USA). For Ep156T cells the protocol was done in reverse with compounds dispensed before seeding of cells. Fluorescent markers were dispensed in culture medium using ATS system after 72-h compound exposure. Nuclei were stained with cell-permeable Hoechst 33342 (Molecular Probes, Eugene, OR, USA), dead cells with ethidium homodimer-2 (Invitrogen, Carlsbad, CA, USA) and apoptotic cells with NucView caspase-3 detection reagent (Essen Bioscience, Ann Arbor, MI, USA). Cells were imaged with Operetta high-content imager (PerkinElmer, Waltham, MA, USA). Proliferation was measured from the number of nuclei (cells), cell death and apoptosis from positive cells/total cells ratio using Harmony image analysis software (PerkinElmer, Waltham, MA, USA). EC50 values were also assessed with the Harmony software.

Another experiment has as its system LNCaP. The experiment can be described thus: Proliferation assay in 2D monolayer culture (number of nuclei, Operetta high-content imager, 72 h). Conditions: Homo sapiens, Harmony software, no unit in the table, μM, read-out: Estimated EC50 values for cell proliferation, LNCaP. As to the method:
as §1, §2, §3

Another experiment has as its system EP156T. The experiment is described as above. Conditions: Harmony software, no unit in the table, μM, read-out: Estimated EC50 values for cell proliferation, EP156T. As for the experimental part: as §1, with “6). A broad range of compound concentrations (1 nM to 30 μM) were used for PC-3, LNCaP and Ep156T cell lines, and analyzed with the PerkinElmer Operetta high-content imager.” for “6).”
as §2, §3

A further experiment deals with PC-3 cells. Put plainly: Primary 3D screen in Matrigel ECM, morphometric image analysis (AMIDA) of invasion, growth and cell death. Conditions: for anti-invasive effects in 3D culture (in words): 0.03-1 μM; for concentration suppressing the invasive transformation (roundness %): PC-3 spheroids, over 6 days. As to the method:
Three standard of care compounds widely used against PrCa were added as controls; namely, the androgen receptor antagonist enzalutamide (MDV3100), the C17α-hydroxylase/C17,20-lyase inhibitor abiraterone (Zytiga), and the classic mitotic inhibitor paclitaxel. Treatments started at day 4, when well-differentiated round acini were established.
The live 3D cell cultures were then stained with reactive dyes Calcein AM to detect living, and ethidium homodimer to detect dead cells. Images (Fig 4A) were acquired with confocal microscope and image data were analyzed with the AMIDA software. The principles of morphometric image analysis are briefly outlined in S2 Fig.
Fig 4 Primary 3D screen. PC-3 cells were cultured in 3D Matrigel ECM for 4 days and treated for 6 days with 25 betulin derivatives (from 2D high throughput screens), DMSO/vehicle control, and three reference compounds. A) Representative maximum intensity projections of confocal microscope stack images for selected compound treatments at 300 nM concentration (5× objective, scale 100 μm). B) Three graphs showing the relative impact on three morphometric parameters for 7 betulin derivatives, DMSO control, and one control compound (paclitaxel). […] C) Hierarchical clustering was done using three morphological parameters derived from PC3 organoids: spheroid size (area), complexity and the number of dead cells. D) Wound healing curves of the two betulin derivatives 4 and 20, highlighting the 50% cut-off level (orange dashed line).
Next, statistical analyses were performed to interpret the complex image data (Fig 4B and 4C). For simplicity, we focused on only three, basic morphologic parameters from the multiparametric AMIDA readout (Fig 4B): 1) Area (indicating growth of organoids), 2) structural Complexity (as a measure of the intensity of invasion), and 3) Relative Area of dead cells within organoids (red signal as a measure of cytoxicity or apoptosis). Area (Size of organoids; Fig 4B, upper panel) was measured as the number of pixels within a segmented structure. […] Shape Complexity (Fig 4B, middle panel) was obtained using the structure size (area) and perimeter (number of border pixels). The more regular the shape of an organoid, the closer it is to a perfect circle, thus minimizing the perimeter relative to object size. […] Deviations from this average (residuals) were interpreted as a measure for the shape complexity of organoids. As a logical lower limit for this measure (represented by a perfect circle), we adjusted the intercept (height level) of the regression line to render all returned residuals as positive numbers.
All 3D cultures were done in growth factor-free Matrigel Basement-membrane Matrix (Corning Inc., New York, NY, USA) using 96-well Angiogenesis μ-plates (ibidi GmbH, Munich, Germany) as described before.[38] “Sandwich” assays in short: bottom wells of cooled Angiogenesis plates were filled with 10 μL 4 mg/mL Matrigel, centrifuged for 20 min 200 g and incubated at 37°C temperature for approximately 30–60 min or until the ECM had polymerized. 1,000–1,500 cells were mixed in 2 mg/mL ECM-medium, and 20 μL of cell suspension was added in each well. The plates were centrifuged for 10 min at 100 g, or until the cells had settled on top of the lower ECM. Finally, the outer wells and side reservoirs were filled with water for humidification, and the culture plates placed into the incubator for 3–4 h or overnight. The following day, 60 μL of cell culture medium were added; refreshed every third day by carefully aspirating the medium.

Setting [1] is: PC-3 in 3D Matrigel, 6 days treatment.

SMILES strings stand for the structures.

Results on six compounds are retold here after paper PMC4428838, “Optimization of Invasion-Specific Effects of Betulin Derivatives on Prostate Cancer Cells through Lead Development” (PLoS ONE, 2015).

`CC(=O)O[C@H]1C(=O)[C@@]2(C)[C@H]([C@H](OC(=O)c3ccccc3)[C@]3(O)C[C@H](OC(=O)[C@H](O)[C@@H](NC(=O)c4ccccc4)c4ccccc4)C(C)=C1C3(C)C)[C@]1(OC(C)=O)CO[C@@H]1C[C@@H]2O` [Paclitaxel, paclitaxel, reference compound]: the EC50 in the experiment with PC-3 was 0.0012 µM; with LNCaP, 0.0006 µM; in the experiment on EP156T, 0.0008 µM. For the same compound, the “effect on morphometric measures (area, complexity, dead cells)” value in the experiment with PC-3 cells (PC-3 in 3D Matrigel, paclitaxel at 30 and 100 nM) is “strong effect on all morphometric measures”.

For the compound `C=C(C)[C@@H]1CC[C@]2(C(=O)O)CC[C@]3(C)C(CCC4[C@@]5(C)Cc6ncccc6C(C)(C)C5CC[C@]43C)C12` (stereo partly shown) [Compound 20], the EC50 was 66.9 µM in the experiment with PC-3, 132 µM in the experiment on LNCaP and 0.19 µM in the experiment on EP156T. Moreover, in the experiment with PC-3 cells (setting [1]), the “anti-invasive effects in 3D culture (in words)” value is reported as “potently anti-invasive at significantly lower concentrations”. The “concentration suppressing the invasive transformation (roundness %)” value in the experiment on PC-3 cells is “over 300 nM”.

Take `C=C(C)[C@@H]1CC[C@]2(C(=O)O)CC[C@]3(C)C(CCC4[C@@]5(C)Cc6cnoc6C(C)(C)C5CC[C@]43C)C12` (stereo partly shown) [Compound 5]: the EC50 in the experiment on PC-3 was 9.5 µM; with LNCaP, 64.6 µM; in the experiment on EP156T, 0.22 µM. Further, the “concentration at which anti-invasive effects are seen in 3D” value in the experiment on PC-3 cells (setting [1]) was 300 nM. Also, the “concentration suppressing the invasive transformation (roundness %)” value in the experiment on PC-3 cells was “over 300 nM”.

As for `C=C(C)[C@@H]1CC[C@]2(C(=O)O)CC[C@]3(C)C(CCC4[C@@]5(C)Cc6cccnc6C(C)(C)C5CC[C@]43C)C12` (stereo partly shown) [Compound 19], the EC50 in the experiment on PC-3 is 86.9 µM; in the experiment with LNCaP, 0.9 µM; in the experiment with EP156T it was 0.18 µM. In the experiment on PC-3 cells (setting [1]), the “anti-invasive effects in 3D culture (in words)” value was “potently anti-invasive at significantly lower concentrations”.

As for `CC(C)[C@@H]1CC[C@]2(C(=O)O)CC[C@]3(C)C(CCC4[C@@]5(C)Cc6cnoc6C(C)(C)C5CC[C@]43C)C12` (stereo partly shown) [Compound 4], the values for the EC50 in the experiment on PC-3, with LNCaP and in the experiment with EP156T were 55.9 µM, 93.1 µM and 0.2 µM, respectively.

Regarding `C=C(C)[C@@H]1CC[C@]2(C(=O)O)CC[C@]3(C)C(CCC4[C@@]5(C)Cc6c[nH]nc6C(C)(C)C5CC[C@]43C)C12` (stereo partly shown) [Compound 6], the EC50 is 90.8 µM with PC-3, 6.4 µM in the experiment with LNCaP and 0.21 µM in the experiment with EP156T. Moreover, the “anti-invasive effects in 3D culture (in words)” value with PC-3 cells (setting [1]) is “even more potent and proved to be specifically anti-invasive”.
